From ChEMBL document CHEMBL1147625, “HIV-1 integrase pharmacophore model derived from diverse classes of inhibitors” (Bioorg Med Chem Lett, 2004)
pIC50: −log10 of the molar value.

Target: Human immunodeficiency virus type 1 integrase (Human immunodeficiency virus 1, UniProt Q7ZJM1)
Sequence (Q7ZJM1 whole entry): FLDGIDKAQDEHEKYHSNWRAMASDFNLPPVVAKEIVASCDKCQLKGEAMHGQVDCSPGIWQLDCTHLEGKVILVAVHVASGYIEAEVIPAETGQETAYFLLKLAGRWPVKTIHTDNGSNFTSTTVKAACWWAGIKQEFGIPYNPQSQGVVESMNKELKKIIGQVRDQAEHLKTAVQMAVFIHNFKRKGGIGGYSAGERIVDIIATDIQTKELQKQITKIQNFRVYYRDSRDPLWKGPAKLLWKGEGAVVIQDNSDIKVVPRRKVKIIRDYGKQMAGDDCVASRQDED
Description: Inhibitory activity against HIV-1 integrase

Row | pIC50 | Structure (SMILES)
1 | < 4.00 | O=C1C(O)=C(C(C2=C(O)C(=O)c3ccccc3C2=O)c2ccc(Cl)cc2)C(=O)c2ccccc21
2 | < 3.53 | CC1=NN(C(=O)c2ccc(Cl)cc2)C(=O)/C1=C\c1ccc(O)cc1
3 | 5.13 | CC1=NN(C(=O)c2ccccc2O)C(=O)/C1=C\c1cccc(O)c1
4 | < 3.70 | O=C(NNCC(O)COc1ccccc1)c1ccccc1O (stereo not drawn)
5 | 5.68 | COc1cc(C)c2c(c1C)OC(=O)c1c(C)c(Cl)c(O)c(C=O)c1O2
6 | 6.01 | CC(CCC(=O)O)C1CC[C@H]2[C@@H]3C(OC(=O)/C=C/c4ccc(O)c(O)c4)CC4CC(OC(=O)/C=C/c5ccc(O)c(O)c5)CC[C@]4(C)[C@H]3CC(OC(=O)/C=C/c3ccc(O)c(O)c3)[C@]12C (stereo partly drawn)
7 | 4.70 | COc1cc(C(C2=C(O)C(=O)c3ccccc3C2=O)C2C(=O)c3ccccc3C(=O)C2O)cc(Br)c1O (stereo not drawn)
8 | 7.00 | CC1C=C(NC(=O)C2=CC(NC(=O)C3=CC(NC(=O)c4ccc(C(=O)NC5=CC(C)C(C(=O)NC6=CC(C)C(C(=O)NC7=CC(C)C(C(=O)NCCC(=N)N)=C7)=C6)=C5)nc4)=CC3C)=CC2C)C=C1C(=O)NCCC(=N)N (stereo not drawn)
9 | 3.00 | CN(C)Cc1ccc2n1Cc1ccccc1SC2c1ccc(F)cc1 (stereo not drawn)
10 | 5.82 | N#CCCc1cccc(/C(O)=C\C(=O)C(=O)O)c1
11 | 3.91 | COC(=O)c1ccc(CC(=O)c2c(C)cc(O)c(C=O)c2O)c(C)c1O
12 | 7.23 | O=C(O)C(=O)/C=C(\O)c1cc(OCc2ccccc2)cc(OCc2ccccc2)c1
13 | 6.22 | COc1ccc(/C=C2\C(=O)N(C(=O)c3ccccc3O)N=C2C)cc1
14 | 6.59 | [N-]=[N+]=NCc1ccc(/C(O)=C\C(=O)C(=O)O)cc1CN=[N+]=[N-]

The next lines start with the molecule.

Row | Structure (SMILES) | pIC50
15 | [N-]=[N+]=NC1CCC(N=[N+]=[N-])c2cc(/C(O)=C\C(=O)C(=O)O)ccc21 (stereo not drawn) | 6.49
16 | CC(Cc1ccc(O)c(O)c1)(C(=O)O)C(C)(Cc1ccc(O)c(O)c1)C(=O)O (stereo in doubt; form 2) | 6.64
17 | O=C(/C=C/c1ccc(O)c(O)c1)NCC(OC(=O)/C=C/c1ccc(O)c(O)c1)C(=O)O (stereo not drawn) | 6.43
18 | CCCCCc1cc(O)cc2c1Oc1c(C=O)c(O)c(Cl)c(C(=O)CCCC)c1C(=O)O2 | 4.47
19 | CC1C=C(NC(=O)C2=CC(NC(=O)C3=CC(N(C)C(=O)c4ccc(C(=O)N(C)C5=CC(C)C(C(=O)NC6=CC(C)C(C(=O)NC7=CC(C)C(C(=O)NCCCN(C)C)=C7)=C6)=C5)cc4)=CC3C)=CC2C)C=C1C(=O)NCCCN(C)C (stereo not drawn) | 7.15
20 | O=C1c2ccccc2SCC2CSC(c3ccccc3)N12 (stereo not drawn) | 3.49
21 | [N-]=[N+]=NC1CC(N=[N+]=[N-])c2cc(/C(O)=C\C(=O)C(=O)O)ccc21 (stereo not drawn) | 6.44
22 | CC(Cc1ccc(O)c(O)c1)(C(=O)O)C(C)(Cc1ccc(O)c(O)c1)C(=O)O (stereo in doubt; form 1) | 6.36
23 | CC1C=C(NC(=O)C2=CC(NC(=O)C3=CC(NC(=O)c4ccc(C(=O)NC5=CC(C)C(C(=O)NC6=CC(C)C(C(=O)NC7=CC(C)C(C(=O)NCCC(=N)N)=C7)=C6)=C5)cc4)=CC3C)=CC2C)C=C1C(=O)NCCC(=N)N (stereo not drawn) | 7.05
